Assay results from US20230128322A1, “SYK KINASE INHIBITORS AS TREATMENT FOR MALARIA” (Purdue Research Foundation, priority 2012, published 2023).
Entries after “also recorded” stand apart in the source; their conditions may differ. Structures can show the parent of a compound that is named as a salt.

Experiments:
[1] = cited from earlier work
[2] = test system: P falciparum strain Palo Alto; assay: parasitemia / re-infection in P. falciparum-infected RBC cultures; type: cell-based, Plasmodium falciparum; details: for parasitemia level as % of the initial level: added 24 hours after start of culture, 72 hours after treatment; for effect on level of parasitemia during second cycle (re-infection): all concentrations examined (0.1-10 μM); for effect on level of parasitemia during first parasite cycle: first 48 hours, inhibitor added 24 hours after start
Description: Inhibition of Syk in RBCs. Infected and non-infected RBCs were treated with Syk kinase inhibitor 11 (FIG. 2) at different concentrations and at different times after the start of the cultures. Cultivation of P. falciparum-infected RBCs. Freshly drawn blood (Rh+) from healthy adults of both sexes was used following informed consent in all studies. […] To assess total parasitemia and the relative numbers of ring and trophozoite stage cells, slides were prepared from cultures at the indicated times and stained with Diff-Quik reagent prior to analysis. 1000 cells were then scored by microscopic analysis of the cell staining patterns. To evaluate the potential of Syk kinase inhibitors as a therapy for treating malaria, the effect of Syk kinase inhibitors on preventing re-infection of additional erythrocytes was evaluated. Based on the hypothesis that destabilization of the RBCM is beneficial to the parasite during egress, blocking RBCM destabilization by inhibiting Syk-mediated tyrosine phosphorylation of band 3 may result in a reduction in the spread of infected cells. To test this, erythrocyte cultures were infected with P. falciparum and then treated 24 hours later with the Syk kinase inhibitor (0, 0.1, 1, and 10 uM concentrations) (FIG. 2). In this set of experiments Syk kinase inhibitors have been added 24 hours after the start of the parasite cultures. Data are means of 2 or 4 experiments with standard deviations. The data presented represents the mean of two to four experiments. The level of parasitemia was then calculated at 24, 48, 72 and 96 hours after addition of the Syk kinase inhibitor. The efficiency of the Syk kinase inhibitor at different stages of the parasite development cycle was examined. […] Growth inhibition was calculated as a % re-invasion rate relative to untreated cultures. […] However, when infected cultures are treated at 24 hours after the initial infection, nearly 100% of parasite re-infection is inhibited. This time point was confirmed in a flow cytometric analysis where the number of merozoites released from isolated schizonts, were measured with or without Syk kinase inhibitor treatment. […] This is consistent with our proposed mechanism of the Syk kinase inhibitor blocking the necessary destabilization of the erythrocyte cell membrane required for egress. Inhibition of Syk in RBCs. Infected and non-infected RBCs were treated with Syk kinase inhibitor IV (FIG. 6) at different concentrations and at different times after the start of the cultures. Cultivation of P. falciparum-infected RBCs. Freshly drawn blood (Rh+) from healthy adults of both sexes was used following informed consent in all studies. […] To assess total parasitemia and the relative numbers of ring and trophozoite stage cells, slides were prepared from cultures at the indicated times and stained with Diff-Quik reagent prior to analysis, 1000 cells were then scored by microscopic analysis of the cell staining patterns. To test this, erythrocyte cultures were infected with P. falciparum and then treated 24 hours later with the Syk kinase inhibitor (0, 0.1, and 10 uM concentrations) (FIG. 6). The data presented represents the mean of two to four experiments. The level of parasitemia was then calculated at 24, 48, 72 and 96 hours after addition of the Syk kinase inhibitor.

[3] = test system: P. falciparum-infected RBCs; assay: vesiculation (microparticle release) of infected RBCs; type: cell-based, human; details: 10 μM, added 12 hours after infection
Description: Micro-vesicle Quantification. Infected and non-infected RBCs were washed 3× in RPMI 1640-HEPES medium and then resuspended at 10% hematocrit in the same medium containing a protease inhibitor cocktail (Sigma-Aldrich). […] Cells were then centrifuged at 2000×g to pellet the RBCs followed by a centrifugation step at 20,000×g for 10 minutes to pellet the RBC membranes. RBC vesicles present in the supernatant were labeled with anti-glycophorin A antibodies or with eosine-maleimide for labeling band 3, and quantified using a FACSCalibur cytometer (BD Biosciences) and the Cell Quest analysis software (BD Biosciences). Vesicles were selected using forward and side light scatter (FSC and SSC signals set to logarithmic amplification). A total of 40,000 events were analyzed. The amount of MPs released by infected RBCs was also measured. […] MPs were isolated from the supernatant by differential centrifugation (as in the INODs paper) and their amount was estimated measuring their band 3 content ([…] blots). Data are mean of 2 experiments with SD (in the second experiment we could measure only the ast times). […] To measure vesiculation, microparticles were isolated from the culture supernatants and quantified based on their band 3 content (determined by Western blotting) [Pantaleo, Free Radic Biol Med 2012, 52: 527-536].

band 3 [4] = assay: band 3 tyrosine phosphorylation in parasite cultures (Western blot); type: cell-based, human; details: 10 μM added at 12 hours; at 48 hours post infection
Description: Immunoblot Analysis. […] The nitrocellulose membranes were then probed using either fluorescein-5'-maleimide (0.25 mg/ml) (Pierce) or anti-phosphotyrosine antibody (Santa Cruz, Calif.) and anti-Syk (Santa Cruz, Calif.) antibodies and with anti-band 3 (Sigma Aldrich). The blots were then analyzed using an 800 nm laser scanner (Odyssey, Licor, USA). […] In this set of experiments, Syk kinase inhibitors were added 12 hours after the start of the parasite cultures. The content of band 3 was measured by western blotting. The percent of band 3 phosphorylation was also measured. […] Band 3 phosphorylation levels have been normalized for the band 3 content ([…] blot). The expectation is that band 3 tyrosine phosphorylation would also be diminished in the Syk kinase inhibitor treated cultures. This is indeed the case. The % of band tyrosine phosphorylation was measured via Western blotting with an anti-phosphotyrosine antibody. […] The cultures were then normalized to the vandate induced level of phosphorylation. […] This is consistent with the hypothesis that just prior to egress the parasite would phosphorylate band 3, disrupt its interaction with ankyrin and result in a destabilized membrane that is more susceptible to breech as required during egress.

[5] = test system: artemisinin resistant parasites in malaria infected blood; assay: ex vivo parasite growth in artemisinin resistant blood of patient 4 (PCR); type: cell-based, human
Description: A blood sample was acquired from patient 4 prior to treatment with artemisinin and 13 day after treatment with artemisinin. […] These parasites are considered artemisinin resistant since there is a persistent parasitemia in the patient, even after artemisinin therapy.
Upon arrival of each sample, malaria infected RBCs were separated from plasma and leukocytes by three washes in wash medium (RPMI 1640 medium containing 2 mM glutamine, 24 mM NaHCO, 25 mM Hepes, 20 mM glucose, and 32 mg/m gentamicin, pH 6.80).
Smears of infected erythrocytes were obtained to assess initial parasitemia. Slides were fixed in 100% methanol and stained with 1/10 dilution of Giemsa solution, incubated for 10 min at room temperature, washed with water, dried, and observed under oil immersion lens (100×) for microscopic analysis. An aliquot was also saved for PCR analysis.
Malaria infected erythrocytes were re-suspended at 2% hematocrit in growth medium consisting of RPMI 1640 supplemented with 2 mM glutamine, 24 mM NaHCO, 25 mM Hepes, 20 mM glucose, and […] gentamicin, pH 6.80 and 10% heat inactivated human serum. Infected blood was aliquoted into 96 well plates pretreated with Syk kinase inhibitor H and incubated at 37° C. in CO2 incubation bags. After 48 hours of incubation, the cultures were processed and analyzed by PCR.

malaria infected RBCs = assay: ex vivo parasitemia in blood from malaria infected Vietnamese patients (PCR); type: cell-based, human; details: 48 hours of incubation, various concentrations
[6] = test system: P. falciparum Dd2-infected erythrocytes; assay: parasitemia of synchronous P. falciparum Dd2 cultures
[7] = cited from earlier work; remark: listed apart in the source
parasite in RBCs = assay: microscopy of Giemsa stained blood smears of treated infected RBCs; type: cell-based
Description: FIGS. 9A-9E are microscopy photographs of standard blood smears. Smears were prepared on glass slides, fixed with 100% methanol, and stained in 10% Giemsa modified stain diluted in PBS for 10 minutes at room temperature.
FIGS. 10A-D are microscopy photographs of standard blood smears. Smears were prepared on glass slides, fixed with 100% methanol, and stained in 10% Giemsa modified stain diluted in PBS for 10 minutes at room temperature.
FIGS. 11A-C are microscopy photographs of standard blood smears. Smears were prepared on glass slides, fixed with 100% methanol, and stained in 10% Giemsa modified stain diluted in PBS for 10 minutes at room temperature.

band 3 [8] = assay: orthovanadate-induced band 3 tyrosine phosphorylation in erythrocytes; type: cell-based, human; details: 10 uM, 1 hour, then 2 mM orthovanadate

## COc1ccc2c(c1)c(C=C1C(=O)Nc3ccc(S(N)(=O)=O)cc31)cn2CC(=O)O [Compd 14]
[1]
  Solubility: […]

## COc1ccc2c(c1)c(C=C1C(=O)Nc3ccc(S(N)(=O)=O)cc31)cn2CCCO [Compd 18]
[1]
  Solubility: <0.1 mg·L

## NCCNc1ncc(C(N)=O)c(Nc2cccc(C(F)(F)F)c2)n1 [Syk kinase inhibitor II, 2-(2-Aminoethylamino)-4-(3-trifluoromethylanilino)-pyrimidine-5-carboxamide]
[2]; 1 μM
  parasitemia level as % of the initial level: ~80%
[2]; 1 μM, added at 40 and 48 hours post initial infection
  inhibition of parasite re-infection: little impact
[2]; 10 μM
  parasitemia level as % of the initial level: ~80%
[2]; Plasmodium falciparum, 1 μM, added 24 hours after the initial infection, read-out: inhibition of parasite re-infection
  inhibition at 1 µM: ~100%
[2]
  effect on level of parasitemia during second cycle (re-infection): significantly dropped the level of parasitemia
  effect on level of parasitemia during first parasite cycle: no effect
[2]; pre-treatment of new culture
  effect when culture is treated prior to infection with normal merozoites: no effect in blocking the parasitemia
[3]
  inhibition of vesiculation vs untreated parasite cultures: ~50%
Band 3 [4]
  maximum level of tyrosine phosphorylated band 3 (relative to 2 mM vanadate): ~35%
[5]; Homo sapiens, sample pre-treatment, parasitemia 0.1%, read-out: IC50 Syk kinase inhibitor II
  IC50: < 0.6 µM
[5]; pre- and post-artemisinin treatment
  elimination of parasites in malaria infected blood: completely eliminate parasites
Malaria infected RBCs
  parasitemia of infected patient blood: completely eliminating parasitemia

## COc1ccc(-c2cc3nccn3c(NC3N=CC=CC3C(N)=O)n2)cc1OC (centres unmarked) [Syk kinase inhibitor IV]
[2]; 10 μM
  parasitemia level as % of the initial level: ~80%
[2]
  effect on level of parasitemia during second cycle (re-infection): significantly dropped the level of parasitemia
  effect on level of parasitemia during first parasite cycle: did not cause changes of parasitemia

## Cc1ccc(NC(=O)c2ccc(CN3CCN(C)CC3)cc2)cc1Nc1nccc(-c2cccnc2)n1 [Imatinib mesylate, 4-[(4-Methyl-1-piperazinyl)methyl]-N-[4-methyl-3-[[4-(3-pyridinyl)-2-pyrimidinyl]amino]-phenyl]benzamide methanesulfonate]
[6]; first 44 hours, added 20 hours after start
  parasitemia during the first cycle: did not cause significant changes in parasitemia
[6]; higher concentrations
  re-infection at the second cycle: fail to reinfect healthy erythrocytes
  viability after 4 cycles of growth: remain nonviable
[6]; starting at 8 μM
  effect on parasite cycles: able to delay the cycles of the parasite
[7]; oral administration
  time post-dose at which Cmax is achieved: 2 to 4 h
Malaria infected RBCs
  parasitemia of infected patient blood: effective at reducing the parasitemia
Parasite in RBCs; 8 μM, up to 121 hour
  parasite development in blood smears: able to delay the lifecycle of the parasite
Parasite in RBCs; 10 μM, listed as Gleevec, methanesulfonate
  parasite morphology in blood smears: immature trophs from the first cycle that have not matured; also recorded: merozoites stuck or trapped inside the RBCs that cannot egress; also recorded: pyknotic parasites, or dead parasites in condensed form
Band 3 [8]
  band 3 tyrosine phosphorylation: completely inhibited

## Cc1ccc(NC(=O)c2ccc(CN3CCNCC3)cc2)cc1Nc1nccc(-c2cccnc2)n1 [N-desmethyl derivative]
[7]; humans
  plasma AUC of metabolite as % of the AUC for imatinib: about 15%
[7]; oral administration in healthy volunteers
  elimination half-life: ~40 h
